# Source: patent US6359001B1, “Use of α-methyl-p-tyrosine to inhibit melanin production in iris melanocytes” (Pharmacia AB, priority 1997, dated 2002)
# Where two headings read alike, the source gives them in different places. Marks after values point to notes of the source that are not given here.
# Legend:
# [1] = tested on: iris; conditions: cited from earlier work
# [2] = biological target: T1, tyrosinase (Homo sapiens, UniProt P14679); assay: Tyrosinase activity in uveal melanocyte cell strains (adapted Pomerantz method, 3H2O release); type: cell-based; conditions: for Tyrosinase activity: growth stage
# T1 construct: endogenous in cells; host or cells: primary uveal (iris) melanocyte cell strains from donor eyes (brown and brown-blue irises)
# T1 sequence (P14679 19-529): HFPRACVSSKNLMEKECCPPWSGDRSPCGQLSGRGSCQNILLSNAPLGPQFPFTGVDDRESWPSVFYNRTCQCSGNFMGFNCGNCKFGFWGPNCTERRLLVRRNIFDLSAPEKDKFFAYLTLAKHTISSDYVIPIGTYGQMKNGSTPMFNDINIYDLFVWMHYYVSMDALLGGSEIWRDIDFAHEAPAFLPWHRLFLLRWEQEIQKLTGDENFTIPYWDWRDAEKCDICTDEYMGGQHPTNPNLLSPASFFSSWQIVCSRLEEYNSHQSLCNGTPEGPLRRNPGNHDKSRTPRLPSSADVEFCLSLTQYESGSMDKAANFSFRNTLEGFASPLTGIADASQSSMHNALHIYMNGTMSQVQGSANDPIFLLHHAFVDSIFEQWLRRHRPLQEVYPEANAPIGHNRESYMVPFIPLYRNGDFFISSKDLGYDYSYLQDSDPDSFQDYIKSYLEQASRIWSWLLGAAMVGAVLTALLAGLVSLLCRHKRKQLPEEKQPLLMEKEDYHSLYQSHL
# Procedure: (§1) Uveal melanocytes were isolated and cultured from adult donor eyes. The iris was excised and placed in a dish with the posterior surface upward. The iris pigment epithelium was separated from the stroma after immersion in 0.25% trypsin solution (Gibco, USA) at 37° C. for 2 hour. The remaining iris stroma was placed in a 0.25% trypsin solution at 4° C. for 18 hours, followed by incubation at 37° C. for 1 hour. The isolated cells were collected. The trypsin solution was replaced by collagenase solution (400 U/ml, in F-12 medium, Sigma, USA) and incubated at 37° C. The collagenase solution was replaced, and the cells were collected, centrifuged, resuspended, and plated each hour for 3 hours.
# (§2) The isolated uveal melanocytes were cultured in Falcon culture dishes (Becton Dickinson, USA) with FIC medium, which consisted of F-12 medium supplemented with 10% fetal bovine serum, 2 mM glutamine (all from Gibco), 10 ng/ml cholera toxin, 0.1 mM isobutylmethylxanthine, 50 μg/ml gentamicin (all from Sigma), and 20 ng/ml basic fibroblast growth factor (Promega, USA). The culture dishes were incubated in a humidified 5% CO2 atmosphere. The medium was changed three times a week. Geneticin (Sigma, USA); a cytotoxic agent, was added (100 μg/ml) for 3 to 7 days when necessary.
# (§3) The 8 cell strains of uveal melanocytes used in the present study were isolated from donors with different iris color (brown and brown-blue).
# Tyrosinase activity was evaluated in nine cell strains using an adaptation of the Pomerantz method, which is based on the measurement of ^3H2O released by the enzymatic hydroxylation of tyrosine.
# [3] = clinical concentrations for the treatment of pheocromocytoma; cited from earlier work
# [4] = tested on: uveal melanocytes; assay: Melanin content of cultured uveal (iris) melanocytes; type: cell-based; conditions: for Melanin content: growth stage
# Procedure: as §1, §2, §3
# (§4) Cultured uveal melanocytes were detached by trypsin-EDTA solution and counted in a hemocytometer, the cell suspensions were centrifuged, and the pellet was dissolved in 1 N NaOH. Melanin concentration was determined by measurement of optical density at 475 nm and compared with a standard curve obtained using synthetic melanin (Sigma). Melanin content was expressed as ng/cell.
# [5] = tested on: uveal melanocytes; assay: Melanin production of cultured uveal (iris) melanocytes; type: cell-based; conditions: for Melanin production: growth stage; for Melanin production by iris melanocytes (summary in words): in vitro experiments
# Procedure: as §1, §2, §3, §4
# Melanin production was calculated by determining the melanin content and the cell counts at the beginning and the end of each generation by the following formula: […]
# where C0 and Ct represent the melanin content per cell at times 0 and time t, respectively; P is the population increase during time t, D is the doubling time of the uveal melanocytes; and Cp is melanin production per cell per day during time t.
# [6] = tested on: monkey iris; conditions: cited from earlier work
# [7] = 3 cell strains (brown-blue), α-methyl-p-tyrosine 10^−5, no latanoprost
# [8] = 3 cell strains (brown-blue), α-methyl-p-tyrosine 10^−5 with latanoprost 10^−5 M
# [9] = 3 cell strains (brown-blue), α-methyl-p-tyrosine 10^−5 with latanoprost 10^−6 M
# [10] = 3 cell strains (brown-blue), α-methyl-p-tyrosine 10^−5 with latanoprost 10^−7 M
# [11] = 3 cell strains (brown-blue), α-methyl-p-tyrosine 10^−5 with latanoprost 10^−8 M
# [12] = 5 cell strains (brown), α-methyl-p-tyrosine 10^−5, no latanoprost
# [13] = 5 cell strains (brown), α-methyl-p-tyrosine 10^−5 with latanoprost 10^−5 M
# [14] = 5 cell strains (brown), α-methyl-p-tyrosine 10^−5 with latanoprost 10^−6 M
# [15] = 5 cell strains (brown), α-methyl-p-tyrosine 10^−5 with latanoprost 10^−7 M
# [16] = 5 cell strains (brown), α-methyl-p-tyrosine 10^−5 with latanoprost 10^−8 M
# [17] = α-methyl-p-tyrosine 10^−5 M added with latanoprost 10^−7 to 10^−5 M, brown and brown-blue irises
# [18] = 3 cell strains (brown-blue), latanoprost 10^−5 M, no α-methyl-p-tyrosine
# [19] = 3 cell strains (brown-blue), latanoprost 10^−6 M, no α-methyl-p-tyrosine
# [20] = 3 cell strains (brown-blue), latanoprost 10^−7 M, no α-methyl-p-tyrosine
# [21] = 3 cell strains (brown-blue), latanoprost 10^−8 M, no α-methyl-p-tyrosine
# [22] = 5 cell strains (brown), latanoprost 10^−5 M, no α-methyl-p-tyrosine
# [23] = 5 cell strains (brown), latanoprost 10^−6 M, no α-methyl-p-tyrosine
# [24] = 5 cell strains (brown), latanoprost 10^−7 M, no α-methyl-p-tyrosine
# [25] = 5 cell strains (brown), latanoprost 10^−8 M, no α-methyl-p-tyrosine
# [26] = brown and brown-blue iris strains, latanoprost at the highest molar concentrations
structure (smiles),measurement,setting,value
"CCCCCCCC(=O)CC[C@@H]1[C@@H](C/C=C\CCCC(=O)OC(C)C)[C@@H](O)C[C@H]1O [isopropyl unoprostone, 13,14-dihydro-15-keto-20-ethyl-PGF2α isopropylester]",Iris colour change in patients,"[1]; human, in vivo",darkening of the iris
"CC(N)(Cc1ccc(O)cc1)C(=O)O (stereo not drawn) [α-methyl-p-tyrosine, α-methyl-para-tyrosine]",Tyrosinase activity,[2]; [7],32.4 units
same,Tyrosinase activity,[2]; [8],39.5 units
same,Tyrosinase activity,[2]; [9],34.6 units
same,Tyrosinase activity,[2]; [10],31.7 units
same,Tyrosinase activity,[2]; [11],34.6 units
same,Tyrosinase activity,[2]; [12],33.6 units
same,Tyrosinase activity,[2]; [13],31.5 units
same,Tyrosinase activity,[2]; [14],34.6 units
same,Tyrosinase activity,[2]; [15],38.7 units
same,Tyrosinase activity,[2]; [16],35.5 units
same,Tyrosinase activity (in words),[2]; [17],significant decrease
same,Catecholamine concentration in the body,[3],markedly reduced
same,Melanin content,[4]; [7],0.0122 ng/cell
same,Melanin content,[4]; [8],0.0128 ng/cell
same,Melanin content,[4]; [9],0.0125 ng/cell
same,Melanin content,[4]; [10],0.0123 ng/cell
same,Melanin content,[4]; [11],0.0119 ng/cell
same,Melanin content,[4]; [12],0.0133 ng/cell
same,Melanin content,[4]; [13],0.0131 ng/cell
same,Melanin content,[4]; [14],0.0137 ng/cell
same,Melanin content,[4]; [15],0.0136 ng/cell
same,Melanin content,[4]; [16],0.0135 ng/cell
same,Melanin content (in words),[4]; [17],significant decrease
same,Melanin production,[5]; [7],0.0023 ng/cell/day
same,Melanin production,[5]; [8],0.0031 ng/cell/day
same,Melanin production,[5]; [9],0.0029 ng/cell/day
same,Melanin production,[5]; [10],0.0029 ng/cell/day
same,Melanin production,[5]; [11],0.0025 ng/cell/day
same,Melanin production,[5]; [12],0.0033 ng/cell/day
same,Melanin production,[5]; [13],0.0031 ng/cell/day
same,Melanin production,[5]; [14],0.0029 ng/cell/day
same,Melanin production,[5]; [15],0.0039 ng/cell/day
same,Melanin production,[5]; [16],0.0035 ng/cell/day
same,Melanin production by iris melanocytes (summary in words),[5],inhibited
same,Melanin production by iris melanocytes (summary in words),[5]; listed as α-methyl-para-tyrosine,significantly reduced
same,Melanin production (in words),[5]; [17],significant decrease
CCCCC[C@H](O)/C=C/[C@@H]1[C@@H](C/C=C\CCCC(=O)O)[C@@H](O)C[C@H]1O [PGF2α],Pigmentation of the monkey iris,"[6]; monkey, in vivo",increased pigmentation
CCCCC[C@H](O)/C=C/[C@H]1[C@H](O)CC(=O)[C@@H]1C/C=C\CCCC(=O)O [PGE2],Pigmentation of the monkey iris,[6]; chronic treatment,increased pigmentation
"CC(C)OC(=O)CCC/C=C\C[C@@H]1[C@@H](CC[C@@H](O)CCc2ccccc2)[C@H](O)C[C@@H]1O [latanoprost, 13,14-dihydro-17-phenyl-18,19,20-tri-nor-PGF2αisopropyl ester]",Iris colour change in patients,"[1]; chronic therapy, sometimes noted",darkening of the iris
same,Tyrosinase activity,[2]; [18],62.7* units
same,Tyrosinase activity,[2]; [19],52.5* units
same,Tyrosinase activity,[2]; [20],48.1* units
same,Tyrosinase activity,[2]; [21],33.7 units
same,Tyrosinase activity,[2]; [22],63.1* units
same,Tyrosinase activity,[2]; [23],42.5 units
same,Tyrosinase activity,[2]; [24],38.3 units
same,Tyrosinase activity,[2]; [25],36.7 units
same,Tyrosinase activity (in words),[2]; [26],increased
same,Pigmentation of the monkey iris,[6]; chronic treatment,increased pigmentation
same,Melanin content,[4]; [18],0.0151* ng/cell
same,Melanin content,[4]; [19],0.0149* ng/cell
same,Melanin content,[4]; [20],0.0142* ng/cell
same,Melanin content,[4]; [21],0.0127 ng/cell
same,Melanin content,[4]; [22],0.0149* ng/cell
same,Melanin content,[4]; [23],0.0161* ng/cell
same,Melanin content,[4]; [24],0.0151 ng/cell
same,Melanin content,[4]; [25],0.0141 ng/cell
same,Melanin content (in words),[4]; [26],increased
same,Melanin production,[5]; [18],0.0067* ng/cell/day
same,Melanin production,[5]; [19],0.0056* ng/cell/day
same,Melanin production,[5]; [20],0.0046* ng/cell/day
same,Melanin production,[5]; [21],0.0038 ng/cell/day
same,Melanin production,[5]; [22],0.0047* ng/cell/day
same,Melanin production,[5]; [23],0.0036 ng/cell/day
same,Melanin production,[5]; [24],0.0046* ng/cell/day
same,Melanin production,[5]; [25],0.0038 ng/cell/day
same,Melanin production (in words),[5]; [26],increased
